Source: patent publication US10000473B2, “Indazole derivatives useful as glucagon receptor antagonists” (Janssen Pharmaceutica NV, priority 2016, dated 2018)

Molecular target: T1, human GCGR (Homo sapiens, UniProt P47871)
T1 construct: expressed in transfected cells; host or cells: HEK293 (hGluc-1HEK), pcDNA3.1, G418 selection
Assay: Cellular functional assay, cAMP readout (glucagon-stimulated cAMP, LANCE TR-FRET)
Assay type: cell-based
Settings: HEK293 cells stably expressing full-length human GCGR; glucagon 100 pM; IC50 converted to Ki; read-out: Inhibition of cAMP Ki
Method: IC50 Values in Cellular Functional Assays: cAMP Readout
Full-length human GCGR (Accession Number: NM000160) subcloned into pcDNA3.1 was stably transfected into HEK293 cells (hGluc-1HEK) and maintained under G418 selection (500 μg/mL). Cell cultures were maintained in DMEM/F12 media supplemented with 10% FBS and 1% GlutaMax™ Supplement (Available from ThermoFisher Scientific, catalog #35050061). Glucagon stimulated cAMP was quantified using LANCE technology as per manufacturer instructions. On the day of the experiment, spent media was removed and cells were washed with Hank's Buffered Saline solution (HBSS), and cells harvested with non-enzymatic cell dissociation solution, then washed once with HBSS. Cells were re-suspended in stimulation buffer at a concentration of 0.83×10^6 cells/ml and cAMP detection antibody was added. 6 μl/well of this solution was then dispensed in a 384 well plate (cell density 5000 cells/well). Test compound was serially diluted in DMSO and 50 nl were dispensed on top of the cell solution and allowed to incubate for 30 minutes. 6 μl of a 2× glucagon solution (final concentration in assay 100 pM) was then added and the reaction was terminated after 5 minutes with the addition of detection mix. The resulting mixture was incubated, protected from light for 1.5 h. cAMP levels were quantified by TR-FRET in an EnVision instrument against a known standard. IC50's were generated by using a non-linear regression macro driven in Excel and converted to Ki values.

T1 sequence (P47871 26-477): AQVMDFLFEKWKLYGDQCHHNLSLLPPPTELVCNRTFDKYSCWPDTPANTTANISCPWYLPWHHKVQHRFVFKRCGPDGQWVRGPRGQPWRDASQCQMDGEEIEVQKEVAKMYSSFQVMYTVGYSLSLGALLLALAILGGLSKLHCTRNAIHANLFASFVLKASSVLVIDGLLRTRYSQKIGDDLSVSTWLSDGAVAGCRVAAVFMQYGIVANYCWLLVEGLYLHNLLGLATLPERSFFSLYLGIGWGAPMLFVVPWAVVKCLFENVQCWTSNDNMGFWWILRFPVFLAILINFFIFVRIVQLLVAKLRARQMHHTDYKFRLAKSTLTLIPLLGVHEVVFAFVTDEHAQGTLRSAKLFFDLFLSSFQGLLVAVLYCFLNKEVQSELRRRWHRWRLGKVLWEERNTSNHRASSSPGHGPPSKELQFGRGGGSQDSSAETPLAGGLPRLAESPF

Compound | Ki [nM]
Cc1c(-c2ccc(C(C)(C)C)cc2)ccc2c1cnn2C(CC(C)C)c1ccc(C(=O)NCCC(=O)O)cc1 (centres unmarked) [Compound #47, 3-(4-(1-(5-(4-(tert-Butyl)phenyl)-4-methyl-1H-indazol-1-yl)-3-methylbutyl)benzamido)propanoic acid] | 92
Cc1cc(C(F)(F)F)ccc1-c1ccc2nn(C(CCC(F)(F)F)c3ccc(C(=O)NCCC(=O)O)cc3)cc2c1 (centres unmarked) [Compound #50, 3-[[4-[4,4,4-Trifluoro-1-[5-[2-methyl-4-(trifluoromethyl)phenyl]indazol-2-yl]butyl]benzoyl]amino]propanoic acid] | 47
CC(C)CC(c1ccc(C(=O)NCCC(=O)O)nc1)n1cc2cc(-c3ccc(C(F)(F)F)cc3Cl)ccc2n1 (centres unmarked) [Compound #53, 3-(5-(1-(5-(2-Chloro-4-(trifluoromethyl)phenyl)-2H-indazol-2-yl)-3-methylbutyl)picolinamido)pr-opanoic acid] | 105
Cc1cc(C(F)(F)F)ccc1-c1cc2cn(C(CC(C)C)c3ccc(C(=O)NCCC(=O)O)cc3)nc2cc1C (centres unmarked) [Compound #54, 3-[[4-[3-Methyl-1-[6-methyl-5-[2-methyl-4-(trifluoromethyl)phenyl]indazol-2-yl]butyl]benzoyl]amino]propanoic acid] | 19
Cc1c(-c2ccc(C(F)(F)F)cc2Cl)ccc2c1cnn2C(CC(C)C)c1ccc(C(=O)NCCC(=O)O)cc1 (centres unmarked) [Compound #55, 3-(4-(1-(5-(2-Chloro-4-(trifluoromethyl)phenyl)-4-methyl-1H-indazol-1-yl)-3-methylbutyl)benzamido)propanoic acid] | 115
CCCC(c1ccc(C(=O)NCCC(=O)O)cc1)n1ncc2cc(-c3ccc(C(C)(C)C)cc3)ccc21 (centres unmarked) [Compound #56, 3-(4-(1-(5-(4-(tert-Butyl)phenyl)-1H-indazol-1-yl)butyl)benzamido)propanoic acid] | 650
Cc1cc(C(F)(F)F)ccc1-c1ccc2nn(C(CC(C)C)c3ccc(C(=O)NCCC(=O)O)cc3)cc2c1C (centres unmarked) [Compound #63, 3-(4-(3-Methyl-1-(4-methyl-5-(2-methyl-4-(trifluoromethyl)phenyl)-2H-indazol-2-yl)butyl)benzamido)propanoic acid] | 28
COc1c(-c2ccc(Cl)cc2C)ccc2nn(C(CC(C)C)c3ccc(C(=O)NCCC(=O)O)cc3)cc12 (centres unmarked) [Compound #64, 3-(4-(1-(5-(4-Chloro-2-methylphenyl)-4-methoxy-2H-indazol-2-yl)-3-methylbutyl)benzamido)propanoic acid] | 37
O=C(O)CCNC(=O)c1ccc(C(c2ccc(C(F)(F)F)cc2)n2cc3cc(-c4ccc(C(F)(F)F)cc4)ccc3n2)cc1 (centres unmarked) [Compound #66, 3-(4-((4-(Trifluoromethyl)phenyl)(5-(4-(trifluoromethyl)phenyl)-2H-indazol-2-yl)methyl)benzamido)propanoic acid] | 600
CC(C)CC(c1ccc(C(=O)NCCC(=O)O)cc1)n1ncc2c(Cl)c(-c3ccc(C(F)(F)F)cc3)ccc21 (centres unmarked) [Compound #67, 3-(4-(1-(4-Chloro-5-(4-(trifluoromethyl)phenyl)-1H-indazol-1-yl)-3-methylbutyl)benzamido)propanoic acid] | 245
CC(c1ccc(C(=O)NCCC(=O)O)cc1)n1ncc2cc(-c3ccc(C(C)(C)C)cc3)ccc21 (centres unmarked) [Compound #68, 3-(4-(1-(5-(4-(tert-Butyl)phenyl)-1H-indazol-1-yl)ethyl)benzamido) propanoic acid] | 2800
O=C(O)CCNC(=O)c1ccc(C(CCC(F)(F)F)n2ncc3cc(-c4ccc(C(F)(F)F)cc4)ccc32)cc1 (centres unmarked) [Compound #75, 3-[[4-[4,4,4-Trifluoro-1-[5-[4-(trifluoromethyl)phenyl]indazol-1-yl]butyl]benzoyl]amino]propanoic acid] | 235
O=C(O)CCNC(=O)c1ccc(C(CCC(F)(F)F)n2ncc3cc(-c4ccc(OC(F)(F)F)cc4)ccc32)cc1 (centres unmarked) [Compound #76, 3-[[4-[4,4,4-Trifluoro-1-[5-[4-(trifluoromethoxy)phenyl]indazol-1-yl]butyl]benzoyl]amino]propanoic acid] | 700
Cc1c(-c2ccc(C(C)(C)C)cc2)ccc2nn(C(CC(C)C)c3ccc(C(=O)NCCC(=O)O)cc3)cc12 (centres unmarked) [Compound #78, 3-(4-(1-(5-(4-(tert-Butyl)phenyl)-4-methyl-2H-indazol-2-yl)-3-methylbutyl)benzamido)propanoic acid] | 35
CC(C)CC(c1ccc(C(=O)NCCC(=O)O)nc1)n1ncc2cc(-c3cc4ccccc4o3)ccc21 (centres unmarked) [Compound #79, 3-(5-(1-(5-(Benzofuran-2-yl)-1H-indazol-1-yl)-3-methylbutyl)picolinamido)propanoic acid] | 500
CC(C)CC(c1ccc(C(=O)NCCC(=O)O)nc1)n1cc2cc(-c3ccc(Cl)cc3Cl)ccc2n1 (centres unmarked) [Compound #83, 3-(5-(1-(5-(2,4-Dichlorophenyl)-2H-indazol-2-yl)-3-methylbutyl)picolinamido)propanoic acid] | 336
CC(C)C[C@H](c1ccc(C(=O)NCCC(=O)O)cc1)n1ncc2cc(-c3ccc(C(F)(F)F)cc3Cl)ccc21 [Compound #85, 3-[[4-[(1R)-1-[5-[2-Chloro-4-(trifluoromethyl)phenyl]indazol-1-yl]-3-methyl-butyl]benzoyl]amino]propanoic acid] | 1270
CC(C)C[C@@H](c1ccc(C(=O)NCCC(=O)O)cc1)n1ncc2cc(-c3ccc(C(F)(F)F)cc3Cl)ccc21 [Compound #90, 3-[[4-[(1S)-1-[5-[2-Chloro-4-(trifluoromethyl)phenyl]indazol-1-yl]-3-methyl-butyl]benzoyl]amino]propanoic acid] | 85
Cc1cc(C(F)(F)F)ccc1-c1cc2cnn(C(CC(C)C)c3ccc(C(=O)NCCC(=O)O)cc3)c2cc1C (centres unmarked) [Compound #93, 3-[[4-[3-Methyl-1-[6-methyl-5-[2-methyl-4-(trifluoromethyl)phenyl]indazol-1-yl]butyl]benzoyl]amino]propanoic acid] | 36
Cc1cc2c(cnn2C(CC(C)C)c2ccc(C(=O)NCCC(=O)O)cc2)cc1-c1ccc(C(F)(F)F)cc1Cl (centres unmarked) [Compound #94, 3-[[4-[1-[5-[2-Chloro-4-(trifluoromethyl)phenyl]-6-methyl-indazol-1-yl]-3-methyl-butyl]benzoyl]amino]propanoic acid] | 26
Cc1cc2nn(C(CC(C)C)c3ccc(C(=O)NCCC(=O)O)cc3)cc2cc1-c1ccc(C(F)(F)F)cc1Cl (centres unmarked) [Compound #95, 3-[[4-[1-[5-[2-Chloro-4-(trifluoromethyl)phenyl]-6-methyl-indazol-2-yl]-3-methyl-butyl]benzoyl]amino]propanoic acid] | 52
COc1c(-c2ccc(Cl)cc2C)ccc2c1cnn2C(CC(C)C)c1ccc(C(=O)NCCC(=O)O)cc1 (centres unmarked) [Compound #99, 3-(4-(1-(5-(4-Chloro-2-methylphenyl)-4-methoxy-1H-indazol-1-yl)-3-methylbutyl)benzamido)propanoic acid] | 145
O=C(O)CCNC(=O)c1ccc(C(c2ccc(C(F)(F)F)cc2)n2ncc3cc(-c4ccc(C(F)(F)F)cc4)ccc32)cc1 (centres unmarked) [Compound #101, 3-(4-((4-(Trifluoromethyl)phenyl)(5-(4-(trifluoromethyl)phenyl)-1H-indazol-1-yl)methyl)benzamido)propanoic acid] | 800
Cc1cc(Cl)ccc1-c1cc2cnn(C(CC(C)C)c3ccc(C(=O)NCCC(=O)O)nc3)c2cc1Cl (centres unmarked) [Compound #102, 3-[[5-[1-[6-Chloro-5-(4-chloro-2-methyl-phenyl)indazol-1-yl]-3-methyl-butyl]pyridine-2-carbonyl]amino]propanoic acid] | 550
COc1c(-c2ccc(C(F)(F)F)cc2Cl)ccc2c1cnn2C(CC(C)C)c1ccc(C(=O)NCCC(=O)O)cc1 (centres unmarked) [Compound #103, 3-(4-(1-(5-(2-Chloro-4-(trifluoromethyl)phenyl)-4-methoxy-1H-indazol-1-yl)-3-methylbutyl)benzamido)propanoic acid] | 100
Cc1ccc(-c2ccc3c(cnn3C(CC(C)C)c3ccc(C(=O)NCCC(=O)O)cc3)c2C)c(Cl)c1 (centres unmarked) [Compound #105, 3-(4-(1-(5-(2-Chloro-4-methylphenyl)-4-methyl-1H-indazol-1-yl)-3-methylbutyl)benzamido)propanoic acid] | 800
O=C(O)CCNC(=O)c1ccc(C(CCC(F)(F)F)n2ncc3cc(-c4ccc(C(F)(F)F)c(Cl)c4)ccc32)cc1 (centres unmarked) [Compound #111, 3-[[4-[1-[5-[3-Chloro-4-(trifluoromethyl)phenyl]indazol-1-yl]-4,4,4-trifluorobutyl]benzoyl]amino]propanoic acid] | > 1300
O=C(O)CCNC(=O)c1ccc(C(CCC(F)(F)F)n2ncc3cc(-c4ccc(Cl)cc4Cl)ccc32)cc1 (centres unmarked) [Compound #112, 3-[[4-[1-[5-(2,4-Dichlorophenyl)indazol-1-yl]-4,4,4-trifluorobutyl]benzoyl]amino]propanoic acid] | 410
CC(C)CC(c1ccc(C(=O)NCCC(=O)O)nc1)n1ncc2cc(-c3ccc(Cl)cc3Cl)ccc21 (centres unmarked) [Compound #113, 3-(5-(1-(5-(2,4-Dichlorophenyl)-1H-indazol-1-yl)-3-methylbutyl)picolinamido)propanoic acid] | 420
